Measured values taken from ChEMBL document CHEMBL2417501, “Synthesis of 4-aminoquinoline-pyrimidine hybrids as potent antimalarials and their mode of action studies” (Eur J Med Chem, 2013).
pEC50: −log10 of the molar value.

tested on: Vaccinia virus; experiment: Antiviral activity against Vaccinia virus infected in human HEL cells assessed as reduction of virus-induced cytopathogenicity; format: functional, organism-based; settings: Orthopoxvirus vaccinia

Row | SMILES | pEC50
1 | COC(=O)c1c(C)nc(NCCCNc2ccnc3cc(Cl)ccc23)nc1-c1ccccc1 | < 4.70
2 | Cc1nc(NCCCCNc2ccnc3cc(Cl)ccc23)nc(-c2ccccc2)c1C(=O)OC(C)C | < 5.40
3 | CCOC(=O)c1c(C)nc(NCCCCNc2ccnc3cc(Cl)ccc23)nc1-c1ccccc1[N+](=O)[O-] | < 5.40
4 | CCOC(=O)c1c(C)nc(OCCCNc2ccnc3cc(Cl)ccc23)nc1-c1ccccc1 | < 4.00
5 | CCOC(=O)c1c(C)nc(NCCCCNc2ccnc3cc(Cl)ccc23)nc1-c1ccc(Cl)cc1 | < 4.70
6 | CCOC(=O)c1c(C)nc(NCCCCNc2ccnc3cc(Cl)ccc23)nc1-c1ccc(F)cc1 | < 4.00
7 | CCOC(=O)c1cnc(NCCCCNc2ccnc3cc(Cl)ccc23)nc1C | < 4.00
8 | Nc1nc2c(ncn2COCCO)c(=O)[nH]1 [ACYCLOVIR] | < 3.60
9 | O=c1[nH]c(=O)n([C@H]2C[C@H](O)[C@@H](CO)O2)cc1/C=C/Br [BRIVUDINE] | 5.30
10 | Nc1ccn(C[C@@H](CO)OCP(=O)(O)O)c(=O)n1 [CIDOFOVIR] | 4.77
11 | Nc1nc2c(ncn2COC(CO)CO)c(=O)[nH]1 [GANCICLOVIR] | < 4.00
